Data as given in ChEMBL document CHEMBL4308907, “Pyrrolidinone-bearing methylated and halogenated benzenesulfonamides as inhibitors of carbonic anhydrases” (Bioorg Med Chem, 2019).
pKd: −log10 of the molar value.

Key:
Carbonic anhydrase 7 = Carbonic anhydrase 7 (Homo sapiens, UniProt P43166); assay: Binding affinity to recombinant human CA7 by DSF-based fluorescence thermal shift assay
Carbonic anhydrase 4 = Carbonic anhydrase 4 (Homo sapiens, UniProt P22748); assay: Binding affinity to recombinant human CA4 by DSF-based fluorescence thermal shift assay
Carbonic anhydrase 12 = Carbonic anhydrase 12 (Homo sapiens, UniProt O43570); assay: Binding affinity to recombinant human CA12 by DSF-based fluorescence thermal shift assay
Carbonic anhydrase 13 = Carbonic anhydrase 13 (Homo sapiens, UniProt Q8N1Q1); assay: Binding affinity to recombinant human CA13 by DSF-based fluorescence thermal shift assay
Carbonic anhydrase 3 = Carbonic anhydrase 3 (Homo sapiens, UniProt P07451); assay: Binding affinity to recombinant N-terminal His6x-tagged human CA3 (4 to 260 residues) expressed in Escherichia coli BL21(DE3) by DSF-based fluorescence thermal shift assay
Carbonic anhydrase 1 = Carbonic anhydrase 1 (Homo sapiens, UniProt P00915); assay: Binding affinity to recombinant human CA1 by DSF-based fluorescence thermal shift assay
Carbonic anhydrase 2 = Carbonic anhydrase 2 (Homo sapiens, UniProt P00918); assay: Binding affinity to recombinant human CA2 by DSF-based fluorescence thermal shift assay
Carbonic anhydrase 6 = Carbonic anhydrase 6 (Homo sapiens, UniProt P23280); assay: Binding affinity to recombinant human CA6 by DSF-based fluorescence thermal shift assay
Carbonic anhydrase 9 = Carbonic anhydrase 9 (Homo sapiens, UniProt Q16790); assay: Binding affinity to recombinant human CA9 by DSF-based fluorescence thermal shift assay
[1] = target: Carbonic anhydrase 5B, mitochondrial (Homo sapiens, UniProt Q9Y2D0); assay: Binding affinity to recombinant full length N-terminal His6x-tagged human CA5B expressed in Escherichia coli Rosetta 2 (DE3) by DSF-based fluorescence thermal shift assay
Chain of Carbonic anhydrase 5B, mitochondrial (Q9Y2D0 whole entry): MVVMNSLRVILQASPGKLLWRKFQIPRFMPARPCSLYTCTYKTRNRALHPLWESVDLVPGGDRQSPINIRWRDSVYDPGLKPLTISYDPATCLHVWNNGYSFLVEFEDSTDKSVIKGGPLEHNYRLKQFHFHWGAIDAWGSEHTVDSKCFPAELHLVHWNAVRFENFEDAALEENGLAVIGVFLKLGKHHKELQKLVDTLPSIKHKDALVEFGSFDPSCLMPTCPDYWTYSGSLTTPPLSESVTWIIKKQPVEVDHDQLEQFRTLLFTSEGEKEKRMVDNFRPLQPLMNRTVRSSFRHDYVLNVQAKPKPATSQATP

Chain of Carbonic anhydrase 1 (P00915 whole entry): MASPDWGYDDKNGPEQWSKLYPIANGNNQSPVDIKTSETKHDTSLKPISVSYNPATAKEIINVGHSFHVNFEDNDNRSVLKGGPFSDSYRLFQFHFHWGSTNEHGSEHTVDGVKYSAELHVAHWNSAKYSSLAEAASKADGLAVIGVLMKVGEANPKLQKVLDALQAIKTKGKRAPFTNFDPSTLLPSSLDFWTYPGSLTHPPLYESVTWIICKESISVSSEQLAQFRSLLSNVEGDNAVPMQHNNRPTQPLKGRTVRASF
Chain of Carbonic anhydrase 13 (Q8N1Q1 whole entry, the tested form may be a part): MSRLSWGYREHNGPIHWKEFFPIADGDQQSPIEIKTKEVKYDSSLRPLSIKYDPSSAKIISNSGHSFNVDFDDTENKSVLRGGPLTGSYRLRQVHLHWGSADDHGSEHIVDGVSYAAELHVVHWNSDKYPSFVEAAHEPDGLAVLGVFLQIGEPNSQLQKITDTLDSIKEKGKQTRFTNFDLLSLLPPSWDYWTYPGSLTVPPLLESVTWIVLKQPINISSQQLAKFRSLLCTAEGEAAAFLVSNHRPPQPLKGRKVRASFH
Chain of Carbonic anhydrase 12 (O43570 whole entry): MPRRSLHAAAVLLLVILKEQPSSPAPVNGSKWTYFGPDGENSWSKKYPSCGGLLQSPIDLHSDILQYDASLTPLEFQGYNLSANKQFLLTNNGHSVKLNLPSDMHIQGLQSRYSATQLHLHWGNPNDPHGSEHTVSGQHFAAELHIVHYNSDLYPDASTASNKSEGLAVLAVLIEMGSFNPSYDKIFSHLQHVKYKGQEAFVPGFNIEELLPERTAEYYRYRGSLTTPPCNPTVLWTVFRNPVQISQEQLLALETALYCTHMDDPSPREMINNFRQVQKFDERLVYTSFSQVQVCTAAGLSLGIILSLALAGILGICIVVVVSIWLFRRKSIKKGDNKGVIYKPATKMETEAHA
Chain of Carbonic anhydrase 7 (P43166 whole entry): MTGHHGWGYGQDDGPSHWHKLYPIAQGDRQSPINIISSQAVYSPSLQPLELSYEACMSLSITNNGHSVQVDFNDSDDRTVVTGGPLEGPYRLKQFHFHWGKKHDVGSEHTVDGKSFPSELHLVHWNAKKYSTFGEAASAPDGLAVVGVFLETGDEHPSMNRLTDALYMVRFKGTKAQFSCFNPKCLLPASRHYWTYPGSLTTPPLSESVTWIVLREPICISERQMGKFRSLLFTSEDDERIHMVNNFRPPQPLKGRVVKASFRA
Chain of Carbonic anhydrase 3 (P07451 whole entry, the tested form may be a part): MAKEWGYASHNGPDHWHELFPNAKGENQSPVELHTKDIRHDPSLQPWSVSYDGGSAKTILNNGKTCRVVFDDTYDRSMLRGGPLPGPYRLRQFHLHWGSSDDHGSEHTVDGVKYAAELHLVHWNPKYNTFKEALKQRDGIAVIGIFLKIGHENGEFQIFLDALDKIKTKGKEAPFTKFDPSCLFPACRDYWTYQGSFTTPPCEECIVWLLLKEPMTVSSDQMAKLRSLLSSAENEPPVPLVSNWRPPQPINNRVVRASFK
Chain of Carbonic anhydrase 6 (P23280 whole entry): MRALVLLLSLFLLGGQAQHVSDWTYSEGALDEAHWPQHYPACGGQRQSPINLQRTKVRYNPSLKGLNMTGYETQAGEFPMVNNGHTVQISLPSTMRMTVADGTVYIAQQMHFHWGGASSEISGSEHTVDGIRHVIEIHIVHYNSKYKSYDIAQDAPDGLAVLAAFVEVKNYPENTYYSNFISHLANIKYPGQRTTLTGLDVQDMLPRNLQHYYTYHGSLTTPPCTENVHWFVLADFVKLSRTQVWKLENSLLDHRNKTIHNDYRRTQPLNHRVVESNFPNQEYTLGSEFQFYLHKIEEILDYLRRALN
Chain of Carbonic anhydrase 4 (P22748 whole entry): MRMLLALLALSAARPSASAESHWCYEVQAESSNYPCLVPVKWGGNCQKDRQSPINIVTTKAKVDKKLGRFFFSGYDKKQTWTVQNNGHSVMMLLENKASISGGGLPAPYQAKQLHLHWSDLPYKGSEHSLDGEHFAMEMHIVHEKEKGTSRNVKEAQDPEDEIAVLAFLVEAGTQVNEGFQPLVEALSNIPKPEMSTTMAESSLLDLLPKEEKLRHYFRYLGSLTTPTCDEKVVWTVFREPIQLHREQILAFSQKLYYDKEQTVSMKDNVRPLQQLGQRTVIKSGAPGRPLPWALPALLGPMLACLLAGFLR

Structure (SMILES)	pKd (Carbonic anhydrase 7)	pKd (Carbonic anhydrase 4)	pKd (Carbonic anhydrase 12)	pKd (Carbonic anhydrase 13)	pKd (Carbonic anhydrase 3)	pKd (Carbonic anhydrase 1)	pKd (Carbonic anhydrase 2)	pKd (Carbonic anhydrase 6)	pKd (Carbonic anhydrase 9)	pKd [1]
Cc1cc(C)n(NC(=O)C2CC(=O)N(c3cc(C)c(S(N)(=O)=O)c(C)c3)C2)n1 (stereo not given)	4.48	5.70	4.17	5.08	≤ 3.70	5.54	5.70	4.54	5.70	6.30
Cc1cc(NCC(CC(=O)O)c2n[nH]c(=S)n2-c2ccccc2)cc(C)c1S(N)(=O)=O (stereo not given)	≤ 3.70	≤ 3.70	4.30	4.48	–	4.00	4.00	≤ 3.70	–	≤ 3.70
Cc1cc(N2CC(c3n[nH]c(=S)o3)CC2=O)cc(C)c1S(N)(=O)=O (stereo not given)	4.70	5.16	≤ 3.70	≤ 3.70	≤ 3.70	5.00	5.11	4.30	5.48	5.70
Cc1c(Br)c(N2CC(C(=O)N/N=C/c3ccc([N+](=O)[O-])cc3)CC2=O)c(Br)c(C)c1S(N)(=O)=O (stereo not given)	–	–	≤ 3.70	≤ 3.70	–	≤ 3.70	≤ 3.70	–	–	–
Cc1cc(S(N)(=O)=O)c(C)cc1N1CC(C(=O)N/N=C/c2ccc([N+](=O)[O-])cc2)CC1=O (stereo not given)	5.89	4.77	4.85	6.49	≤ 3.70	5.21	5.68	5.00	5.96	7.55
Cc1cc(N2CC(C(=O)N/N=C/c3ccc([N+](=O)[O-])cc3)CC2=O)cc(C)c1S(N)(=O)=O (stereo not given)	4.48	5.33	4.66	4.77	≤ 3.70	6.00	5.77	5.00	5.70	6.40
NS(=O)(=O)c1ccc(NC(=O)C2CC(=O)N(c3ccc(Br)cc3)C2)cc1 (stereo not given)	5.82	5.25	4.41	5.51	≤ 3.70	5.48	6.19	4.77	6.37	5.42
Cc1c(Br)c(N2CC(C(=O)O)CC2=O)c(Br)c(C)c1S(N)(=O)=O (stereo not given)	≤ 3.70	≤ 3.70	≤ 3.70	≤ 3.70	≤ 3.70	≤ 3.70	≤ 3.70	≤ 3.70	≤ 3.70	≤ 3.70
Cc1c(Br)c(N2CC(C(=O)NN)CC2=O)c(Br)c(C)c1S(N)(=O)=O (stereo not given)	≤ 3.70	≤ 3.70	≤ 3.70	≤ 3.70	≤ 3.70	≤ 3.70	≤ 3.70	≤ 3.70	≤ 3.70	≤ 3.70
Cc1cc(NCC(CC(=O)O)c2n[nH]c(=S)n2-c2ccccc2)c(Cl)c(C)c1S(N)(=O)=O (stereo not given)	5.11	5.00	5.60	5.85	–	4.40	4.77	5.00	6.00	5.00
Cc1cc(N2CC(C(=O)NNC(=S)Nc3ccccc3)CC2=O)cc(C)c1S(N)(=O)=O (stereo not given)	5.19	5.16	5.30	6.00	≤ 3.70	6.04	5.96	≤ 3.70	5.85	6.11
Cc1c(Br)c(N2CC(C(=O)N/N=C/c3ccccc3)CC2=O)c(Br)c(C)c1S(N)(=O)=O (stereo not given)	≤ 3.70	≤ 3.70	≤ 3.70	≤ 3.70	≤ 3.70	≤ 3.70	≤ 3.70	≤ 3.70	≤ 3.70	≤ 3.70
COC(=O)C1CC(=O)N(c2c(Br)c(C)c(S(N)(=O)=O)c(C)c2Br)C1 (stereo not given)	≤ 3.70	≤ 3.70	≤ 3.70	≤ 3.70	≤ 3.70	≤ 3.70	≤ 3.70	≤ 3.70	≤ 3.70	≤ 3.70
Cc1cc(N2CC(C(=O)NN3CC(C(=O)O)CC3=O)CC2=O)cc(C)c1S(N)(=O)=O (stereo not given)	4.48	5.04	4.66	5.17	≤ 3.70	4.89	5.15	4.08	5.40	5.11
COc1ccc(/C=N/NC(=O)C2CC(=O)N(c3cc(C)c(S(N)(=O)=O)c(C)c3)C2)cc1 (stereo not given)	4.74	5.66	4.74	4.68	≤ 3.70	5.70	5.70	4.85	5.70	6.17
Cc1cc(NC(=O)C2CC(=O)N(c3ccccc3)C2)cc(C)c1S(N)(=O)=O (stereo not given)	5.08	5.17	≤ 3.70	5.41	≤ 3.70	5.80	–	4.35	–	–
Cc1cc(C)cc(NC(=O)C2CC(=O)N(c3ccccc3)C2)c1 (stereo not given)	–	≤ 3.70	≤ 3.70	≤ 3.70	≤ 3.70	≤ 3.70	≤ 3.70	≤ 3.70	≤ 3.70	≤ 3.70
Cc1cc(C)n(NC(=O)C2CC(=O)N(c3cc(C)c(S(N)(=O)=O)c(C)c3Cl)C2)n1 (stereo not given)	7.60	–	5.70	8.00	–	5.96	7.70	5.48	7.00	7.00
Cc1cc(N2CC(c3n[nH]c(=S)o3)CC2=O)c(Cl)c(C)c1S(N)(=O)=O (stereo not given)	6.89	–	–	7.00	≤ 3.70	6.08	7.00	5.48	7.17	6.60
COC(=O)C1CC(=O)N(c2cc(C)c(S(N)(=O)=O)c(C)c2)C1 (stereo not given)	5.47	5.17	–	5.70	≤ 3.70	5.82	5.70	4.30	5.52	≤ 3.70

Now those with a higher pKd (Carbonic anhydrase 1), led by results:

pKd (Carbonic anhydrase 7)	pKd (Carbonic anhydrase 4)	pKd (Carbonic anhydrase 12)	pKd (Carbonic anhydrase 13)	pKd (Carbonic anhydrase 3)	pKd (Carbonic anhydrase 1)	pKd (Carbonic anhydrase 2)	pKd (Carbonic anhydrase 6)	pKd (Carbonic anhydrase 9)	pKd [1]	Structure (SMILES)
7.20	6.47	5.85	7.17	≤ 3.70	6.25	7.30	6.04	6.70	8.11	Cc1cc(N2CC(C(=O)N/N=C/c3ccc(Br)cc3)CC2=O)c(Cl)c(C)c1S(N)(=O)=O (stereo not given)
7.89	6.00	–	7.85	≤ 3.70	6.17	7.54	5.32	7.00	7.60	COC(=O)C1CC(=O)N(c2cc(C)c(S(N)(=O)=O)c(C)c2Cl)C1 (stereo not given)
7.29	6.40	5.46	6.70	≤ 3.70	6.68	7.06	5.43	7.42	6.72	NS(=O)(=O)c1ccc(NC(=O)C2CC(=O)N(c3ccccc3Br)C2)cc1 (stereo not given)
6.77	6.09	5.00	5.96	≤ 3.70	6.51	6.72	5.62	7.25	6.13	NS(=O)(=O)c1ccc(NC(=O)C2CC(=O)N(c3cccc(Br)c3)C2)cc1 (stereo not given)
7.37	6.32	5.85	7.25	≤ 3.70	6.48	7.30	6.09	7.00	7.74	Cc1cc(N2CC(C(=O)N/N=C/c3ccc([N+](=O)[O-])cc3)CC2=O)c(Cl)c(C)c1S(N)(=O)=O (stereo not given)
7.70	–	6.00	–	≤ 3.70	6.60	7.60	5.48	6.85	7.89	Cc1cc(C)n(C(=O)C2CC(=O)N(c3cc(C)c(S(N)(=O)=O)c(C)c3Cl)C2)n1 (stereo not given)
7.00	–	6.44	7.85	–	6.44	7.49	5.66	7.00	6.70	Cc1cc(N2CC(C(=O)NNC(=S)Nc3ccccc3)CC2=O)c(Cl)c(C)c1S(N)(=O)=O (stereo not given)
7.46	6.29	5.70	6.70	≤ 3.70	6.17	7.00	6.19	7.04	8.42	Cc1cc(N2CC(C(=O)N/N=C/c3ccc(Cl)cc3)CC2=O)c(Cl)c(C)c1S(N)(=O)=O (stereo not given)
7.80	6.74	–	7.30	≤ 3.70	6.15	7.25	6.23	7.11	8.49	COc1ccc(/C=N/NC(=O)C2CC(=O)N(c3cc(C)c(S(N)(=O)=O)c(C)c3Cl)C2)cc1 (stereo not given)
8.06	–	6.30	7.77	≤ 3.70	6.36	7.48	5.51	7.05	7.40	Cc1cc(N2CC(c3n[nH]c(=S)n3-c3ccccc3)CC2=O)c(Cl)c(C)c1S(N)(=O)=O (stereo not given)
